PMC6101970 (Oncogene, 2018)

Target: ATR/ATRIP (human) (Homo sapiens, UniProt Q13535)
Test: HTRF kinase assay, GST-cMyc-p53 Ser15 phosphorylation
Format: biochemical

Sequence of ATR/ATRIP (human) (Q13535 whole entry): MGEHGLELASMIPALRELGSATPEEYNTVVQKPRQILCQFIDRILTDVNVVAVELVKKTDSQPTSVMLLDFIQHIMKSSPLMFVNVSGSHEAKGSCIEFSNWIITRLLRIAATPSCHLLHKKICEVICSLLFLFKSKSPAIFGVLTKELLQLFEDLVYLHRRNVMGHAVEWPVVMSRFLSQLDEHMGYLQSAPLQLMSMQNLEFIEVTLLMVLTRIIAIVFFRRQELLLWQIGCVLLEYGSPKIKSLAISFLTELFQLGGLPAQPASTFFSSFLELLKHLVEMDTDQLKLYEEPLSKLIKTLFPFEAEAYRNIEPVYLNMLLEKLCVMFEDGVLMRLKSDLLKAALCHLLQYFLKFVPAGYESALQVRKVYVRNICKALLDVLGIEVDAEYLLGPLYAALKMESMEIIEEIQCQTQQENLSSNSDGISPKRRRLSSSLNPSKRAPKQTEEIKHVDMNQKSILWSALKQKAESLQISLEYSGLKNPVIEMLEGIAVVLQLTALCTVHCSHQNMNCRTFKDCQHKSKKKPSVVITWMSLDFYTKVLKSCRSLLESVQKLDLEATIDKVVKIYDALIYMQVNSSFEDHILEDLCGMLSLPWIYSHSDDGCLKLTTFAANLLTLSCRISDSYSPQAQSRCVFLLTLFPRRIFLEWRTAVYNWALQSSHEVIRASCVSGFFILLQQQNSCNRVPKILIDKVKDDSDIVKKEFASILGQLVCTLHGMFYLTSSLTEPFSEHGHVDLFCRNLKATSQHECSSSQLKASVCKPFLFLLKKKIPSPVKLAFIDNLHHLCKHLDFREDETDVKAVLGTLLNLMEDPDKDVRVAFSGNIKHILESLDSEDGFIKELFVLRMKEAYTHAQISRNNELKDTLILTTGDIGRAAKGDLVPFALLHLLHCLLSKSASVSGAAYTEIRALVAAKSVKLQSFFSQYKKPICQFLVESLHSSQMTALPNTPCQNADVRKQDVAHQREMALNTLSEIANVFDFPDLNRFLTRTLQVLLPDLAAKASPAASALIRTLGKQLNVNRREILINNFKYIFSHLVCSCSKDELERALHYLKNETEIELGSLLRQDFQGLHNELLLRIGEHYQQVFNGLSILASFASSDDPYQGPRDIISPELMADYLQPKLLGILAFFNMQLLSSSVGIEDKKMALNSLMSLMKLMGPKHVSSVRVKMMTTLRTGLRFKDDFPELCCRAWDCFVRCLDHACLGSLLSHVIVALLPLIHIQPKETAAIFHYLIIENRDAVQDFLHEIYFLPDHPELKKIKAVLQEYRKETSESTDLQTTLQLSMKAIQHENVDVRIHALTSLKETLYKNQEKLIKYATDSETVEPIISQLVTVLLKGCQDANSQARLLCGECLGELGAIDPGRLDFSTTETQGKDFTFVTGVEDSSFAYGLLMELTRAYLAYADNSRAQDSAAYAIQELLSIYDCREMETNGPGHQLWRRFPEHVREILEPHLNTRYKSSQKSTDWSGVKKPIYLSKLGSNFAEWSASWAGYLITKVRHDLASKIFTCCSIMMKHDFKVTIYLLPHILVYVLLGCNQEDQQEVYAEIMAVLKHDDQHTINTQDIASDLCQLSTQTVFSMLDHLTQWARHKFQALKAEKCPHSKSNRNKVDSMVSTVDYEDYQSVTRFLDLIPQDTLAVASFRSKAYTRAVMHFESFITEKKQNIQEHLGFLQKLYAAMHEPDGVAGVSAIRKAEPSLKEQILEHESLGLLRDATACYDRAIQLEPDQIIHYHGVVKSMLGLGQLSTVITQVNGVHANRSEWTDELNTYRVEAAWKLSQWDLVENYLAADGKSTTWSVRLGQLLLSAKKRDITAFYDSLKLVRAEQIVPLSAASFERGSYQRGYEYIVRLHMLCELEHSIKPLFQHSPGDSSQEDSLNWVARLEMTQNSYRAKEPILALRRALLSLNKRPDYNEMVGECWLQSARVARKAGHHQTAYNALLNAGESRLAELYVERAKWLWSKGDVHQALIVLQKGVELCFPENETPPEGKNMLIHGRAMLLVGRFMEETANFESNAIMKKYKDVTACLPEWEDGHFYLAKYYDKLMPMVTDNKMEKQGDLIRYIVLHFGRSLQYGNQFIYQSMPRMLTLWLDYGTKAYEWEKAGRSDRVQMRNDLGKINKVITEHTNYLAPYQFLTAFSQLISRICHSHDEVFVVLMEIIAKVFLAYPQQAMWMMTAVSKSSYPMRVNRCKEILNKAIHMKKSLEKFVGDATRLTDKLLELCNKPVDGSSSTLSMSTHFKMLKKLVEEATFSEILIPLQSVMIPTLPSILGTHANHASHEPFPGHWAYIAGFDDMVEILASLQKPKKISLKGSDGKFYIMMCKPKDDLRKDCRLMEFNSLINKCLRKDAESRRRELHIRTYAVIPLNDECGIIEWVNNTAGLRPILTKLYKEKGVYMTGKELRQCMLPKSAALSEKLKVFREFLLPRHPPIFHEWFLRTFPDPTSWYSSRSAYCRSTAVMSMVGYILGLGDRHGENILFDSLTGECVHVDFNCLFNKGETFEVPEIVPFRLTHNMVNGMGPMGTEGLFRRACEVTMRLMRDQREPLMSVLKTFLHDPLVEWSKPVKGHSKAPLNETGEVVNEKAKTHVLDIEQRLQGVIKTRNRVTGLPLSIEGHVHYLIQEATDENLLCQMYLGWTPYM
Sequence of ATR/ATRIP (human) (Q8WXE1 whole entry partner): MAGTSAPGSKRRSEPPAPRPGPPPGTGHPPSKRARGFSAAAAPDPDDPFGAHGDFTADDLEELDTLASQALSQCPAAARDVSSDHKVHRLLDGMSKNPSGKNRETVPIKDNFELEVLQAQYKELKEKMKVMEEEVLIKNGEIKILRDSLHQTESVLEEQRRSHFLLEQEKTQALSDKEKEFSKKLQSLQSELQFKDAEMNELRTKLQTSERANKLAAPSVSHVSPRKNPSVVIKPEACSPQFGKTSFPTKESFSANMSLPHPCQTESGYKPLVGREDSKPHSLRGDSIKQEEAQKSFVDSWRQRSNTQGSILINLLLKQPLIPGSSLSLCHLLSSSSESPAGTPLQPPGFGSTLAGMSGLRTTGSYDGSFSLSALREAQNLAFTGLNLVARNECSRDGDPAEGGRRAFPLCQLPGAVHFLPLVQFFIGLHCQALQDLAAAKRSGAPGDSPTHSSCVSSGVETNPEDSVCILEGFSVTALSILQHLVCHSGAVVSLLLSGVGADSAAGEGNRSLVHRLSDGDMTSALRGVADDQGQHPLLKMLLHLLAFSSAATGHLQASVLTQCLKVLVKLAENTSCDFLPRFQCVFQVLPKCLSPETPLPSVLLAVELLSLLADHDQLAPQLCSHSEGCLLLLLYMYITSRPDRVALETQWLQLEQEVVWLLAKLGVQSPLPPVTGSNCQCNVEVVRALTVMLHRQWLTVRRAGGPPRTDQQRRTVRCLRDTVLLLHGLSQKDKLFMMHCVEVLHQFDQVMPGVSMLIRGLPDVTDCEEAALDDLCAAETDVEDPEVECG

## Cc1sc2c(c1C)C(c1ccc(Cl)cc1)=N[C@@H](CC(=O)OC(C)(C)C)c1nnc(C)n1-2 [JQ1]
  IC50: > 10 µM

## COc1nnc2ccc(N3CCC(c4ccc(OCCN5CCN(C)C(=O)[C@H]5C)cc4)CC3)nn12 [AZD5153]
  IC50: > 10 µM
